Publication PMC11233931, “Remodeling tumor‐associated macrophage for anti‐cancer effects by rational design of irreversible inhibition of mitogen‐activated protein kinase‐activated protein kinase 2” (MedComm, 2024)

Columns and labels:
Assay in all cases: Eurofins kinase selectivity profile against 380 other human recombinant kinases (Table S2)
Assay type in all cases: biochemical
[1] = biological target: T1, 380 human recombinant protein kinases (Homo sapiens, UniProt O00311); settings: Cdc7/cyclinB1(h), read-out: Inhibition rate
T1 construct: purchased Eurofins (Celle Lévescault)
Method in brief: (§1)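 The inhibitor was sent to a contract lab and screened at various concentrations against 380 human recombinant protein kinases. This served as a counter-screen for MK2 specificity.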

[2] = biological target: T2, 380 human recombinant protein kinases (Homo sapiens, UniProt O14757); settings: CHK1(h), read-out: Inhibition rate
T2 construct: purchased Eurofins (Celle Lévescault)
T2 sequence (O14757 1-476): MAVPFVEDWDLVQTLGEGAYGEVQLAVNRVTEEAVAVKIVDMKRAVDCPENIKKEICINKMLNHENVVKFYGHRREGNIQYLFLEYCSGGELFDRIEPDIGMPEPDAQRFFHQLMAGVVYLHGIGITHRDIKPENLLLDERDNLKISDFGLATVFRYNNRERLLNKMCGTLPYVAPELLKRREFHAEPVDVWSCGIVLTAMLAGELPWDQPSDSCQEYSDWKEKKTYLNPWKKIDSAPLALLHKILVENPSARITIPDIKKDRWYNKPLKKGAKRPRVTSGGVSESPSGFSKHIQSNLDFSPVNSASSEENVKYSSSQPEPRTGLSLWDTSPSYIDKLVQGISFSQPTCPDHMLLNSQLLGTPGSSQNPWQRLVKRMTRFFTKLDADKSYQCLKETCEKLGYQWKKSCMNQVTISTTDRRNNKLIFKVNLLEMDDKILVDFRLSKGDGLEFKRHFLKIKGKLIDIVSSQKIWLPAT
Method in brief: as §1

[3] = biological target: T3, 380 human recombinant protein kinases (Homo sapiens, UniProt P08922); settings: Ros(h), read-out: Inhibition rate
T3 construct: purchased Eurofins (Celle Lévescault)
T3 sequence (P08922 28-2347): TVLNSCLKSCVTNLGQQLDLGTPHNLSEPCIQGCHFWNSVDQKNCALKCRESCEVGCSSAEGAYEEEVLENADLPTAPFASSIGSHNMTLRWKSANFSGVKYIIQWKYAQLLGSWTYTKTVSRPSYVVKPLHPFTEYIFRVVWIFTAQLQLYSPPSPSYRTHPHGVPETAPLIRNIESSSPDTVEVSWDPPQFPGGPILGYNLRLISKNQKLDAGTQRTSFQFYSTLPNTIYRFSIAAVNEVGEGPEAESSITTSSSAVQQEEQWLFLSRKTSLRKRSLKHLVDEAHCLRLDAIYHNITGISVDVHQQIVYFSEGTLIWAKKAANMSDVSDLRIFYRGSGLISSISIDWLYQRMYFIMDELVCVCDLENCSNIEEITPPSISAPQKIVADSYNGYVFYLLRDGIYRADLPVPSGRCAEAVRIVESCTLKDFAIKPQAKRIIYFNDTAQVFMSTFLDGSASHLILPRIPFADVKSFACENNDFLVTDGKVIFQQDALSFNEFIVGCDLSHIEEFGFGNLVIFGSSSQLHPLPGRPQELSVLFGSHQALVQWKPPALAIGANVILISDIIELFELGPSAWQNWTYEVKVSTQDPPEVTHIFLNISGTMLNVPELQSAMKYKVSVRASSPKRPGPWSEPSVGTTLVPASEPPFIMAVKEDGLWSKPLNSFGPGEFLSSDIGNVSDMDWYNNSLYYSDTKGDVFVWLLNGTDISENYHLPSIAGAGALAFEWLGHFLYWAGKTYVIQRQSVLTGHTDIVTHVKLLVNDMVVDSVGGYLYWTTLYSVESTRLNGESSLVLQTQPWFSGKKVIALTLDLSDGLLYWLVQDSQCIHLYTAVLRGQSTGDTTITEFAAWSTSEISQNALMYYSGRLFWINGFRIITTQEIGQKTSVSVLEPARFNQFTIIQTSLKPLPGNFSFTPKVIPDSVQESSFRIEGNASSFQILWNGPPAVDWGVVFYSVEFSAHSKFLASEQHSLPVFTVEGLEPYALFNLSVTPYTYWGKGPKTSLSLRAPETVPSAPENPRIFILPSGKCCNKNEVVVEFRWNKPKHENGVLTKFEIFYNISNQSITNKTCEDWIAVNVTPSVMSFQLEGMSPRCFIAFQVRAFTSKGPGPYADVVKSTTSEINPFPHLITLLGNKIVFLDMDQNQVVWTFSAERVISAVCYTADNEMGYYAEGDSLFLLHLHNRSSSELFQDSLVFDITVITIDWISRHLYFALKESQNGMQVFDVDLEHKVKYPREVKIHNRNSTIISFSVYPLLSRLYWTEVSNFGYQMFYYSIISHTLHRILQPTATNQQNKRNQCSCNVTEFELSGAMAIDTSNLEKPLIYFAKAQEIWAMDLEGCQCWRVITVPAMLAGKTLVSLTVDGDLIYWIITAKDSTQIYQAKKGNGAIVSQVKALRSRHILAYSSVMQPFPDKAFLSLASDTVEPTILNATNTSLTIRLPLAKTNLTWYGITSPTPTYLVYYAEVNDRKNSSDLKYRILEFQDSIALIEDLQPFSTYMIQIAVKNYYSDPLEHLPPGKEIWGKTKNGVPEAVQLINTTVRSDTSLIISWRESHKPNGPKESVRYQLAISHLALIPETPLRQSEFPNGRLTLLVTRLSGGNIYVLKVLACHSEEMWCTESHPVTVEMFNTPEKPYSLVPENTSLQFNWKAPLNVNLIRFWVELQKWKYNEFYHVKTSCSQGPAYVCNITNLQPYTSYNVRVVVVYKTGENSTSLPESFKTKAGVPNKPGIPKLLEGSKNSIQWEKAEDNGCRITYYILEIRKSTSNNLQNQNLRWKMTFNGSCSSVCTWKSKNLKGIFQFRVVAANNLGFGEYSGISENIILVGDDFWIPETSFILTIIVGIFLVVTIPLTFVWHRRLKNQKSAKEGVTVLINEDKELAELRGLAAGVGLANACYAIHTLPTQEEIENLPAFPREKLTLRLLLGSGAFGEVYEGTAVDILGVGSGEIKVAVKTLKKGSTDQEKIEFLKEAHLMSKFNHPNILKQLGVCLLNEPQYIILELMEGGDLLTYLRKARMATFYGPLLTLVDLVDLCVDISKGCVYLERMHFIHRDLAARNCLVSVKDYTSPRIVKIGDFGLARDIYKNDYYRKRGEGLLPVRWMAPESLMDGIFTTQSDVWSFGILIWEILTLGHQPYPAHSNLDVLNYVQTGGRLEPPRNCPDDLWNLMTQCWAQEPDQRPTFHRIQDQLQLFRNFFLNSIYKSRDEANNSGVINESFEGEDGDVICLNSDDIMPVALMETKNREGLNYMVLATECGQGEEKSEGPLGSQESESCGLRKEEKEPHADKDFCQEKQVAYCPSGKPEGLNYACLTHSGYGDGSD
Method in brief: as §1

[4] = biological target: T4, 380 human recombinant protein kinases (Homo sapiens, UniProt P42336, E542K); settings: PI3 Kinase (p110α(E542K)/p85α)(h), read-out: Inhibition rate (%)
T4 construct: purchased Eurofins (Celle Lévescault)
T4 sequence (P42336 whole entry E542K): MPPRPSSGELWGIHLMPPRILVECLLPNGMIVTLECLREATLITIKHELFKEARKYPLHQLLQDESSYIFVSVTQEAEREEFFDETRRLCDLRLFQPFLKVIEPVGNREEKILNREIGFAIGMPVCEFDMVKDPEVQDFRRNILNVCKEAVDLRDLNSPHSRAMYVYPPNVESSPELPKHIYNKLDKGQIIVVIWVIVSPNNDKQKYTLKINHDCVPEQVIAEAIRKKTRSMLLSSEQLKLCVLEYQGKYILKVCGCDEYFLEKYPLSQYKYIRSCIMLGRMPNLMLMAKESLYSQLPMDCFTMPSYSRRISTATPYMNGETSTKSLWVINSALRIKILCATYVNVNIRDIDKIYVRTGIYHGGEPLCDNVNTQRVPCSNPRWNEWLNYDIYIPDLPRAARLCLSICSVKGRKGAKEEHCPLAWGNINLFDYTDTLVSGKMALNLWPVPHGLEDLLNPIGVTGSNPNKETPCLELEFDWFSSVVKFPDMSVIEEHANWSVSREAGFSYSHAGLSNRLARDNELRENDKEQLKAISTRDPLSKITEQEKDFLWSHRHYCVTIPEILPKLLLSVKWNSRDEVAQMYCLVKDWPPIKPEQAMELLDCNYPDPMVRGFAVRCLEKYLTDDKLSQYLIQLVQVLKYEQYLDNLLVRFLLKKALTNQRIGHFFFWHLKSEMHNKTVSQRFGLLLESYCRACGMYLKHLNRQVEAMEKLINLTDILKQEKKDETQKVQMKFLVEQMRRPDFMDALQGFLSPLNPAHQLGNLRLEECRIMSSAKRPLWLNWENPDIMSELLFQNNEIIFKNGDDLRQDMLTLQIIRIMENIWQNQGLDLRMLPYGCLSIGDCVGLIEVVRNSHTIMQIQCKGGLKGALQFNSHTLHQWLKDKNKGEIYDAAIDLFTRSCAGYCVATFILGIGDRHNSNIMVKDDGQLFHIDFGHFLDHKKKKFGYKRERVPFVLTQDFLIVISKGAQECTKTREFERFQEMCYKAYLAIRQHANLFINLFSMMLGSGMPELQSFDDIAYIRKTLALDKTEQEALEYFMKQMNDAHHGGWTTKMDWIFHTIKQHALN
Method in brief: as §1

[5] = biological target: T5, 380 human recombinant protein kinases (Homo sapiens, UniProt P54760); settings: EphB4(h), read-out: Inhibition rate
T5 construct: purchased Eurofins (Celle Lévescault)
T5 sequence (P54760 16-987): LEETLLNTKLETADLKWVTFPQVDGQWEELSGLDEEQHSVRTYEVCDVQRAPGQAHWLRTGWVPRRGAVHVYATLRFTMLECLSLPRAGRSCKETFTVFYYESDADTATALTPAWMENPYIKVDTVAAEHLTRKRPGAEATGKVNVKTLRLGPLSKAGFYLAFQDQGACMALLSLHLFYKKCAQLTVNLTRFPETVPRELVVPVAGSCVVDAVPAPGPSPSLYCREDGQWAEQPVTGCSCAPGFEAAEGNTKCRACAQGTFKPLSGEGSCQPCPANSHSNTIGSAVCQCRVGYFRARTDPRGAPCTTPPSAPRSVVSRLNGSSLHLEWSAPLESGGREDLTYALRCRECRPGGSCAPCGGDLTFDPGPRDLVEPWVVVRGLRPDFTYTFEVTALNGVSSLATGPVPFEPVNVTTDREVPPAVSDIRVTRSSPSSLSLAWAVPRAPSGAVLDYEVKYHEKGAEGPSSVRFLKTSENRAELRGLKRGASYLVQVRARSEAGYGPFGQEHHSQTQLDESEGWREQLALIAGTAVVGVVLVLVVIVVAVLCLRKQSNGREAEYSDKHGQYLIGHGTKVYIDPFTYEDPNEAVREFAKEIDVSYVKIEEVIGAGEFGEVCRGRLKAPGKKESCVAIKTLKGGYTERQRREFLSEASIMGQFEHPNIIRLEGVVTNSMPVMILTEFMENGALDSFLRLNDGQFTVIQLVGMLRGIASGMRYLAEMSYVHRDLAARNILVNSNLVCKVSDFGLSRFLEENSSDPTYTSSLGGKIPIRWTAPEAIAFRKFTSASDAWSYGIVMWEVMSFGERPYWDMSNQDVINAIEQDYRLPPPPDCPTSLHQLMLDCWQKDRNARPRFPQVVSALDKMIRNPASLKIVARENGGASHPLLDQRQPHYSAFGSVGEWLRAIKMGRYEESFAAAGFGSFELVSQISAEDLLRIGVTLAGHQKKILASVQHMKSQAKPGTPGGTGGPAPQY
Method in brief: as §1

[6] = biological target: T6, 380 human recombinant protein kinases (Homo sapiens, UniProt Q13177); settings: PAK2(h), read-out: Inhibition rate
T6 construct: purchased Eurofins (Celle Lévescault)
T6 sequence (Q13177 whole entry): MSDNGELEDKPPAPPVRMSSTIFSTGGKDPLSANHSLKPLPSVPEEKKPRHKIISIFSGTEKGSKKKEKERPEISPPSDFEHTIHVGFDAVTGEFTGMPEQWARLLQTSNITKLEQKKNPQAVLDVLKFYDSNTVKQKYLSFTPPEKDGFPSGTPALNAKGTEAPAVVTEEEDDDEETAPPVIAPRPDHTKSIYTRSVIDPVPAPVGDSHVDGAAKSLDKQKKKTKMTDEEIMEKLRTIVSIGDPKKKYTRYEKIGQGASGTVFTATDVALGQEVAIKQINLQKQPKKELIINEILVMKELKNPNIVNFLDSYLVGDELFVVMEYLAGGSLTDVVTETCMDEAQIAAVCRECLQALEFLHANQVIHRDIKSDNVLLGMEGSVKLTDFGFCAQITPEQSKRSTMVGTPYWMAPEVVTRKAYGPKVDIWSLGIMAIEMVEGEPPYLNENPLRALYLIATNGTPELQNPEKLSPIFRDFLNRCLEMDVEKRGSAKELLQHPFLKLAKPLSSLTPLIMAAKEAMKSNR
Method in brief: as §1

[7] = biological target: T7, 380 human recombinant protein kinases (Homo sapiens, UniProt Q15349); settings: Rsk3(h), read-out: Inhibition rate (%)
T7 construct: purchased Eurofins (Celle Lévescault)
T7 sequence (Q15349 whole entry): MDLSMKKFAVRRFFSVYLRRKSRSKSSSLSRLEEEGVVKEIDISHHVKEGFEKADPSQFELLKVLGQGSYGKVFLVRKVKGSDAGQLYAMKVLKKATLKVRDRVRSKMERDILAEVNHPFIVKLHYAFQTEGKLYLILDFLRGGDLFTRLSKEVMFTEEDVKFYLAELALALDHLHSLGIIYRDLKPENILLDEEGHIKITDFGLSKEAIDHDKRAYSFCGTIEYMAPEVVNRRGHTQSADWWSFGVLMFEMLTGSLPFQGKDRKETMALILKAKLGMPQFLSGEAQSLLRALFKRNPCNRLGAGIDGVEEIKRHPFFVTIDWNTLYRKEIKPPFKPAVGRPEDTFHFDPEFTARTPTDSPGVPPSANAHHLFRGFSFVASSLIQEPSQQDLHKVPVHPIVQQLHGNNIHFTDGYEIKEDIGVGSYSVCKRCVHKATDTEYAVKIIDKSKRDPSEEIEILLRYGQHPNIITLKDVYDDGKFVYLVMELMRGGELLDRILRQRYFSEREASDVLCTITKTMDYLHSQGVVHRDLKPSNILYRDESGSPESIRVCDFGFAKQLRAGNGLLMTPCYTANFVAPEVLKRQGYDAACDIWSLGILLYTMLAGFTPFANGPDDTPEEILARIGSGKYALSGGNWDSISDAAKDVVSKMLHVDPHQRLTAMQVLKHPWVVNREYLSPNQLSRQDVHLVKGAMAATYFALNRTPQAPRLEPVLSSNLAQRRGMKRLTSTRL
Method in brief: as §1

[8] = biological target: T8, 380 human recombinant protein kinases (Homo sapiens, UniProt Q99986); settings: VRK1(h), read-out: Inhibition rate (%)
T8 construct: purchased Eurofins (Celle Lévescault)
T8 sequence (Q99986 1-396): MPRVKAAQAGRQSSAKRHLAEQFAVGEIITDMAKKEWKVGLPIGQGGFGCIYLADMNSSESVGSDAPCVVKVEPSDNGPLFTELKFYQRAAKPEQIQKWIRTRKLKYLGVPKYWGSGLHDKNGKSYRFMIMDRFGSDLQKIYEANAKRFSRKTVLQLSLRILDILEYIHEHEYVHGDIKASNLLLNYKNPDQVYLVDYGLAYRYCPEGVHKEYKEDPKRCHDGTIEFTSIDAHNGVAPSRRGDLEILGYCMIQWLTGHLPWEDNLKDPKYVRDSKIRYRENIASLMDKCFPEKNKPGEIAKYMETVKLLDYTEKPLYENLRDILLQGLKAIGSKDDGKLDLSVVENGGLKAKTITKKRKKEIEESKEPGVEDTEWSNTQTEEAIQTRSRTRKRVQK
Method in brief: as §1

## C=CC(=O)Nc1cc(-c2cc(-c3cc4c([nH]3)CCNC4=O)ccn2)ccc1OC(F)(F)F [compound 11]
[1]; 10 nM
  inhibition at 0.01 µM: 8%
[1]; 100 nM
  inhibition at 0.1 µM: 16%
[1]; 1000 nM
  inhibition at 1 µM: 22%
[2]; 10 nM
  inhibition at 0.01 µM: 10%
[2]; 100 nM
  inhibition at 0.1 µM: 6%
[2]; 1000 nM
  inhibition at 1 µM: 6%
[3]; 10 nM
  inhibition at 0.01 µM: 1%
[3]; 100 nM
  inhibition at 0.1 µM: 1%
[3]; 1000 nM
  inhibition at 1 µM: 6%
[4]; 10 nM
  inhibition at 0.01 µM: -3%
[4]; 100 nM
  inhibition at 0.1 µM: -2%
[4]; 1000 nM
  inhibition at 1 µM: -2%
[5]; 10 nM
  inhibition at 0.01 µM: -4%
[5]; 100 nM
  inhibition at 0.1 µM: -15%
[5]; 1000 nM
  inhibition at 1 µM: -4%
[6]; 10 nM
  inhibition at 0.01 µM: -3%
[6]; 100 nM
  inhibition at 0.1 µM: -5%
[6]; 1000 nM
  inhibition at 1 µM: -3%
[7]; 10 nM
  inhibition at 0.01 µM: -9%
[7]; 100 nM
  inhibition at 0.1 µM: 14%
[7]; 1000 nM
  inhibition at 1 µM: 16%
[8]; 10 nM
  inhibition at 0.01 µM: 1%
[8]; 100 nM
  inhibition at 0.1 µM: 1%
[8]; 1000 nM
  inhibition at 1 µM: 5%
